The text below walks through data of patent publication US6339096B1, “Urethanes derived from azacycloalkanes, the thio and dithio analogues thereof and their use as cholesterol biosynthesis inhibitors” (Boehringer Ingelheim Pharma KG, priority 1998, dated 2002).

pIC50: −log10 of the molar value. Counter-ions that a name gives are not always drawn.

In assay [1] the test system is ^14C-acetate incorporation into the steroids which can be precipitated with digitonin. Kind of assay: Inhibition of 14C-acetate incorporation into the steroids which can be precipitated with digitonin. Format: cell-based. Conditions: for inhibition at 0.01 µM / inhibition at 0.001 µM: read-out: percentage by which the compound inhibits the 14C-acetate incorporation. The procedure:
I. Measuring the Inhibition of ^14C-acetate Incorporation into the Steroids which can be Precipitated with Digitonin
The inhibitory effect was investigated using the method described in J. Lipid. Res. 37, 148-157 [1996] at test concentrations of 10^−8 and 10^−9 mol/l.
The IC50 values of compounds H, I, K and M were determined.

The target of assay [2] is T1, 2,3-epoxysqualene-lanosterol-cyclase (Rattus norvegicus, UniProt P48450).
T1 construct: The quantity of 2,3-epoxysqualene formed therefore serves as a direct measurement of the potency on the animal as a whole; from tissue; host or cells: living rat; 2,3-epoxysqualene measured in the liver
T1 sequence (P48450 1-733): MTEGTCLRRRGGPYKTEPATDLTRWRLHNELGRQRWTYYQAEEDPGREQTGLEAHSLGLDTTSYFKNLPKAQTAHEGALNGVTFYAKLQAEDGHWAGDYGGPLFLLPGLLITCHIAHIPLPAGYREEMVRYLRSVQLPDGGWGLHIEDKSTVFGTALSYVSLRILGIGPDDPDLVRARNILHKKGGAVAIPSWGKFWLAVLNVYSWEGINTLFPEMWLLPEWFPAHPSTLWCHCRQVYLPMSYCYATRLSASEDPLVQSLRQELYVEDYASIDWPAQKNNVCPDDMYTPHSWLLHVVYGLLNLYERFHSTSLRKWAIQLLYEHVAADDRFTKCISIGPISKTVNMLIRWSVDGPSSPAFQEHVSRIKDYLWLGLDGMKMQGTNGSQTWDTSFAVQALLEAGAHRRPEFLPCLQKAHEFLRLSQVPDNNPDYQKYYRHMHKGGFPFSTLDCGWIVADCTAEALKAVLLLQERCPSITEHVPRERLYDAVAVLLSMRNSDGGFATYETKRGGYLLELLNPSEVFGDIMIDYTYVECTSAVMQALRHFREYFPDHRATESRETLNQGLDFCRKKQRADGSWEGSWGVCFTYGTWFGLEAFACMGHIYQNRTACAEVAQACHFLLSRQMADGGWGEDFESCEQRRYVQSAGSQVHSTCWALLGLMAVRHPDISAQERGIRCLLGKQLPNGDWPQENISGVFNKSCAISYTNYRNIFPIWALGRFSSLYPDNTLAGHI
The assay can be described thus: In-vivo activity in the rat after oral administration: 2,3-epoxysqualene level in the liver. The method, then: II. Measuring the In-vivo Activity in the Rat after Oral Administration
Inhibiting the enzyme 2,3-epoxysqualene-lanosterol-cyclase causes an increase in the 2,3-epoxisqualene levels in the liver and plasma. The quantity of 2,3-epoxysqualene formed therefore serves as a direct measurement of the potency on the animal as a whole. The amounts were determined using the method described in J. Lipid. Res. 38, 564-575, [1997] after t=3 or 8 hours after administration of the substance in concentrations of c=0.01, 0.03, 0.1, 0.3 and 1.0 mg/kg. Table 3 which follows gives the results obtained for the abovementioned substances A, B, C, D, E, G, H, I and K by way of example.
In the control animals there were no measurable 2,3-epoxisqualene levels under these conditions.

Assay [3] relates to normolipaemic golden hamster. The assay can be described thus: Lipid reduction in the normolipaemic golden hamster. In kind it is in vivo. The note with it: compared with control group. The procedure: III. Lipid Reduction in the Normolipaemic Golden Hamster This was determined using the method described in J. Lipid. Res. 38, 564-575, (1997). At the end of the experiment the total cholesterol, β-lipoprotein-cholesterol and HDL-cholesterol were determined and compared with the values of a control group which were fed without any test substance. The lipid-lowering activity of the abovementioned compound H was tested.

Consider `CN(C)Cc1ccc(C=C2CCN(C(=S)SCc3ccccc3)CC2)cc1` [(F), N-(benzylthio)thiocarbonyl-4-[4-(dimethylaminomethyl)benzyliden]piperidine-hydrochloride], for which, in assay [1] (test concentration 10^−8 mol/l), the inhibition at 0.01 µM turned out to be 84%. The inhibition at 0.001 µM in assay [1] (test concentration 10^−9 mol/l) was 45%.
As for `Cc1ccc(OC(=O)N2CCC(Cc3ccc(CN(C)C)cc3)CC2)cc1.Cl` [(K), 4-[4-(dimethylaminomethyl)benzyl]-N-(4-methylphenoxy)carbonylpiperidine-hydrochloride], the “2,3-epoxysqualene concentration in the liver (rat)” value (“2,3-epoxysqualene concentration” below) turned out to be 0.4 µg/g in assay [2] (c=0.1 mg/kg, t=3 h); 0.4 µg/g in assay [2] (c=0.1 mg/kg, t=8 h); 24.0 µg/g in assay [2] (c=1.0 mg/kg, t=3 h); 5.5 µg/g in assay [2] (c=1.0 mg/kg, t=8 h). Further, the negative logarithm of the IC50 (pIC50) in assay [1] is 8.85. The inhibition at 0.01 µM in assay [1] (test concentration 10^−8 mol/l) amounted to 82%. Further, the inhibition at 0.001 µM in assay [1] (test concentration 10^−9 mol/l) came to 49%. In addition, the HDL-cholesterol in assay [3] (dose 54.2 mg/kg/day) is recorded as 2.3%. Besides, the Total cholesterol in assay [3] (dose 54.2 mg/kg/day) was −6.8%. Besides, the β-Lipoprotein-cholesterol in assay [3] (dose 54.2 mg/kg/day) was −21.2%.
For the molecule `Cc1ccc(OC(=S)N2CCC(Cc3ccc(CN(C)C)cc3)CC2)cc1` [(L), 4-[4-(dimethylaminomethyl)benzyl]-N-(4-methylphenoxy)thiocarbonylpiperidine-hydrochloride], the inhibition at 0.01 µM in assay [1] (test concentration 10^−8 mol/l) was found to be 88%. The inhibition at 0.001 µM in assay [1] (test concentration 10^−9 mol/l) came to 64%.
For the molecule `CN(C)Cc1ccc(C(=O)C2CCN(C(=S)SCc3ccccc3)CC2)cc1.Cl` [(B), N-(benzylthio)thiocarbonyl-4-[4-(dimethylaminomethyl)benzoyl]piperidine-hydrochloride], the “2,3-epoxysqualene concentration” value in assay [2] (c=0.3 mg/kg, t=3 h) amounted to 4.5 µg/g; in assay [2] (c=0.3 mg/kg, t=8 h), 5.8 µg/g; in assay [2] (c=1.0 mg/kg, t=3 h), 39.2 µg/g; in assay [2] (c=1.0 mg/kg, t=8 h), 42.0 µg/g. Besides, the inhibition at 0.01 µM in assay [1] (test concentration 10^−8 mol/l) was 85%. For the same molecule, the inhibition at 0.001 µM in assay [1] (test concentration 10^−9 mol/l) turned out to be 47%.
For `CN(C)Cc1ccc(SC2CCN(C(=O)OCc3ccccc3)CC2)cc1.Cl` [(C), N-benzyloxycarbonyl-4-[4-(dimethylaminomethyl)phenylthio]piperidine-hydrochloride], the “2,3-epoxysqualene concentration” value was found to be 0.6 µg/g in assay [2] (c=0.01 mg/kg, t=3 h); 3.0 µg/g in assay [2] (c=0.01 mg/kg, t=8 h); 0.5 µg/g in assay [2] (c=0.1 mg/kg, t=3 h); 1.3 µg/g in assay [2] (c=0.1 mg/kg, t=8 h); 0.5 µg/g in assay [2] (c=0.3 mg/kg, t=3 h); 1.8 µg/g in assay [2] (c=0.3 mg/kg, t=8 h). The “2,3-epoxysqualene concentration” value was 3.8 µg/g in assay [2] (c=1.0 mg/kg, t=3 h) and 2.0 µg/g in assay [2] (c=1.0 mg/kg, t=8 h). In addition, the inhibition at 0.01 µM in assay [1] (test concentration 10^−8 mol/l) came out at 78%. The inhibition at 0.001 µM in assay [1] (test concentration 10^−9 mol/l) turned out to be 57%.
Turning to `Cc1ccc(CC(=O)O[C@H]2CC[C@H](c3ccc(CN(C)C)cc3)CC2)cc1` [(W), trans-O-(p-tolylacetyl)-4-(4-dimethylaminomethylphenyl)cyclohexanol, reference compound], the negative-log IC50 (pIC50) in assay [1] is 8.02. In assay [1] (test concentration 10^−8 mol/l), the inhibition at 0.01 µM came to 72%. The inhibition at 0.001 µM in assay [1] (test concentration 10^−9 mol/l) came out at 21%.
Regarding `CN(C)Cc1ccc(CC2CCN(C(=S)SCc3ccccc3)CC2)cc1.Cl` [(E), N-(benzylthio)thiocarbonyl-4-[4-(dimethylaminomethyl)benzyl]piperidine-hydrochloride], the “2,3-epoxysqualene concentration” value in assay [2] (c=0.01 mg/kg, t=3 h) stood at 0.9 µg/g; in assay [2] (c=0.01 mg/kg, t=8 h), 1.0 µg/g; in assay [2] (c=0.1 mg/kg, t=3 h), 5.6 µg/g; in assay [2] (c=0.1 mg/kg, t=8 h), 4.4 µg/g. The inhibition at 0.01 µM in assay [1] (test concentration 10^−8 mol/l) was 87%. For the same molecule, the inhibition at 0.001 µM in assay [1] (test concentration 10^−9 mol/l) came out at 47%.
For `CN(C)Cc1ccc([C@H]2CC[C@H](N(C)C(=O)c3ccc(Cl)cc3)CC2)cc1` [(V), reference compound], the pIC50 in assay [1] was 8.42. In addition, the “percentage by which the compound inhibits the 14C-acetate incorporation” value was −59% in assay [1] (test concentration 10^−8 mol/l) and −23% in assay [1] (test concentration 10^−9 mol/l).
Turning to `CN(C)Cc1ccc(CC2CCN(C(=S)Oc3ccc(Cl)cc3)CC2)cc1.Cl` [(G), N-(4-chlorophenoxy)thiocarbonyl-4-[4-(dimethylaminomethyl)benzyl]piperidine-hydrochloride], the “2,3-epoxysqualene concentration” value worked out at 10.3 µg/g in assay [2] (c=0.1 mg/kg, t=3 h); 11.5 µg/g in assay [2] (c=0.1 mg/kg, t=8 h); 87.4 µg/g in assay [2] (c=1.0 mg/kg, t=3 h); 134.2 µg/g in assay [2] (c=1.0 mg/kg, t=8 h). Further, in assay [1] (test concentration 10^−8 mol/l), the inhibition at 0.01 µM came out at 83%. Further, the inhibition at 0.001 µM in assay [1] (test concentration 10^−9 mol/l) came to 56%.
With `CN(C)Cc1ccc(SC2CCN(C(=S)SCc3ccccc3)CC2)cc1.Cl` [(A), N-(benzylthio)thiocarbonyl-4-[4-(dimethylaminomethyl)phenylthio]piperidine-hydrochloride], the “2,3-epoxysqualene concentration” value was determined as 2.0 µg/g in assay [2] (c=0.3 mg/kg, t=3 h); 1.2 µg/g in assay [2] (c=0.3 mg/kg, t=8 h); 9.3 µg/g in assay [2] (c=1.0 mg/kg, t=3 h); 9.8 µg/g in assay [2] (c=1.0 mg/kg, t=8 h). Moreover, the inhibition at 0.01 µM in assay [1] (test concentration 10^−8 mol/l) was 85%. Moreover, the inhibition at 0.001 µM in assay [1] (test concentration 10^−9 mol/l) stood at 53%.
For `CN(C)Cc1ccc(CC2CCN(C(=O)OCc3ccccc3)CC2)cc1.Cl` [(I), N-benzyloxycarbonyl-4-[4-(dimethylaminomethyl)benzyl]piperidine-hydrochloride], the “2,3-epoxysqualene concentration” value in assay [2] (c=0.1 mg/kg, t=3 h) was 1.0 µg/g; in assay [2] (c=1.0 mg/kg, t=3 h) it was 26.1 µg/g; in assay [2] (c=1.0 mg/kg, t=8 h), 10.0 µg/g. The same molecule showed a pIC50 in assay [1] of 8.92. Further, in assay [1] (test concentration 10^−8 mol/l), the inhibition at 0.01 µM was determined as 85%. Also, in assay [1] (test concentration 10^−9 mol/l), the inhibition at 0.001 µM turned out to be 47%.
In the case of `CN(C)Cc1ccc(CC2CCN(C(=O)Oc3ccc(F)cc3)CC2)cc1.Cl` [(M), 4-[4-(dimethylaminomethyl)benzyl]-N-(4-fluorphenoxy)carbonylpiperidine-hydrochloride], in assay [1], the negative-log IC50 (pIC50) was 8.82. The “percentage by which the compound inhibits the 14C-acetate incorporation” value in assay [1] (test concentration 10^−8 mol/l) is −84%. The “percentage by which the compound inhibits the 14C-acetate incorporation” value in assay [1] (test concentration 10^−9 mol/l) is −59%. In assay [3] (dose 57.5 mg/kg/day), the HDL-cholesterol is on record as −20.4%, the Total cholesterol is −26.8% and the β-Lipoprotein-cholesterol is given as −31.6%.
In the case of `CN(C)Cc1ccc(SC2CCN(C(=O)Oc3ccc(Cl)cc3)CC2)cc1.Cl` [(D), N-(4-chlorophenoxy)carbonyl-4-[4-(dimethylaminomethyl)phenylthio]piperidine-hydrochloride], the “2,3-epoxysqualene concentration” value in assay [2] (c=0.01 mg/kg, t=3 h) was determined as 1.3 µg/g; in assay [2] (c=0.01 mg/kg, t=8 h), 1.0 µg/g; in assay [2] (c=0.1 mg/kg, t=3 h) it was 1.4 µg/g; in assay [2] (c=0.1 mg/kg, t=8 h) it was 1.8 µg/g. Moreover, the inhibition at 0.01 µM in assay [1] (test concentration 10^−8 mol/l) was 86%. Also, in assay [1] (test concentration 10^−9 mol/l), the inhibition at 0.001 µM is 55%.
